Experimental data from patent publication US12180187B2, “1-phenyl-5-azinylpyrazolyl-3-oxyalkyl acids and their use for controlling unwanted plant growth” (BAYER AKTIENGESELLSCHAFT, priority 2019, dated 2024).

Tests used:
ALOMY [1] = experiment: Pre-emergence action against ALOMY, 1280 g/ha; format: in vivo, Alopecurus myosuroides; settings: visual scoring after about 3 weeks vs untreated controls, 100% = plants have died, 0% = like control plants
Summary of the method: (§1)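 Sandy loam pots, seeds covered with soil; aqueous WP/EC spray on covering soil, 0.5% additive, 600 L/ha. Greenhouse growth, good conditions. Readout: visual % activity at ~3 weeks (0% = like control, 100% = dead).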

DIGSA [2] = experiment: Pre-emergence action against DIGSA, 1280 g/ha; format: in vivo, Digitaria sanguinalis; settings: visual scoring after about 3 weeks vs untreated controls, 100% = plants have died, 0% = like control plants
Summary of the method: as §1

ECHCG [3] = experiment: Pre-emergence action against ECHCG, 1280 g/ha; format: in vivo, Echinochloa crus-galli; settings: visual scoring after about 3 weeks vs untreated controls, 100% = plants have died, 0% = like control plants
Summary of the method: as §1

LOLRI [4] = experiment: Pre-emergence action against LOLRI, 1280 g/ha; format: in vivo, Lolium rigidum; settings: visual scoring after about 3 weeks vs untreated controls, 100% = plants have died, 0% = like control plants
Summary of the method: as §1

POAAN [5] = experiment: Pre-emergence action against POAAN, 1280 g/ha; format: in vivo, Poa annua; settings: visual scoring after about 3 weeks vs untreated controls, 100% = plants have died, 0% = like control plants
Summary of the method: as §1

SETVI [6] = experiment: Pre-emergence action against SETVI, 1280 g/ha; format: in vivo, Setaria viridis; settings: visual scoring after about 3 weeks vs untreated controls, 100% = plants have died, 0% = like control plants
Summary of the method: as §1

ABUTH [7] = experiment: Pre-emergence action against ABUTH, 1280 g/ha; format: in vivo, Abutilon theophrasti; settings: scored visually after about 3 weeks vs untreated controls (100% = plants have died)
Source text: 1. Pre-Emergence Herbicidal Effect and Crop Plant Compatibility a) Seeds of mono- and dicotyledonous weed plants are placed in plastic pots in sandy loam soil (doubly sown with one species each of mono- or dicotyledonous weed plants per pot) and covered with soil. The compounds of the invention, formulated in the form of wettable powders (WP) or as emulsion concentrates (EC), are then applied onto the surface of the covering soil as aqueous suspension or emulsion with addition of 0.5% additive at a water application rate equivalent to 600 litres per hectare. After the treatment, the pots are placed in a greenhouse and kept under good growth conditions for the trial plants. After about 3 weeks, the effect of the preparations is scored visually in comparison with untreated controls as percentages. For example, 100% activity=the plants have died, 0% activity=like control plants. 1. Pre-Emergence Effectiveness Tables 1 to 12 below show the effects of selected compounds of the general formula (I) according to Tables 1 and 2 on various harmful plants and at an application rate corresponding to 1280 g/ha, which were obtained by the experimental procedure mentioned above.

AMARE [8] = experiment: Pre-emergence action against AMARE, 1280 g/ha; format: in vivo, Amaranthus retroflexus; settings: scored visually after about 3 weeks vs untreated controls (100% = plants have died)
Summary of the method: as §1

MATIN [9] = experiment: Pre-emergence action against MATIN, 1280 g/ha; format: in vivo, Tripleurospermum inodorum (Matricaria inodora); settings: scored visually after about 3 weeks vs untreated controls (100% = plants have died)
Summary of the method: as §1

STEME [10] = experiment: Pre-emergence action against STEME, 1280 g/ha; format: in vivo, Stellaria media; settings: scored visually after about 3 weeks vs untreated controls (100% = plants have died)
Summary of the method: as §1

VERPE [11] = experiment: Pre-emergence action against VERPE, 1280 g/ha; format: in vivo, Veronica persica; settings: scored visually after about 3 weeks vs untreated controls (100% = plants have died)
Summary of the method: as §1

DIGSA [12] = experiment: Post-emergence action against DIGSA, 1.28 kg/ha; format: in vivo, Digitaria sanguinalis; settings: dosage 1280 g/ha, visual rating about 3 weeks after treatment vs untreated controls
Summary of the method: (§2)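 Visual rating against untreated plants about 3 weeks after spraying gives % activity, where 0% means like controls and 100% means plants died. Plants were treated post-emergence at the one-leaf stage with compound formulated as wettable powder or emulsion concentrate, applied at 600 L water/ha plus 0.5% additive.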

ECHCG [13] = experiment: Post-emergence action against ECHCG, 1.28 kg/ha; format: in vivo, Echinochloa crus-galli; settings: dosage 1280 g/ha, visual rating about 3 weeks after treatment vs untreated controls
Summary of the method: as §2

POAAN [14] = experiment: Post-emergence action against POAAN, 1.28 kg/ha; format: in vivo, Poa annua; settings: dosage 1280 g/ha, visual rating about 3 weeks after treatment vs untreated controls
Summary of the method: as §2

SETVI [15] = experiment: Post-emergence action against SETVI, 1.28 kg/ha; format: in vivo, Setaria viridis; settings: dosage 1280 g/ha, visual rating about 3 weeks after treatment vs untreated controls
Summary of the method: as §2

ABUTH [16] = experiment: Post-emergence action against ABUTH, 1.28 kg/ha; format: in vivo, Abutilon theophrasti; settings: dosage 1280 g/ha, visual rating about 3 weeks after treatment vs untreated controls (100% = plants died)
Summary of the method: as §2

AMARE [17] = experiment: Post-emergence action against AMARE, 1.28 kg/ha; format: in vivo, Amaranthus retroflexus; settings: dosage 1280 g/ha, visual rating about 3 weeks after treatment vs untreated controls (100% = plants died)
Summary of the method: as §2

KCHSC [18] = experiment: Post-emergence action against KCHSC, 1.28 kg/ha; format: in vivo, Bassia scoparia; settings: dosage 1280 g/ha, visual rating about 3 weeks after treatment vs untreated controls (100% = plants died)
Summary of the method: as §2

MATIN [19] = experiment: Post-emergence action against MATIN, 1.28 kg/ha; format: in vivo, Tripleurospermum inodorum (Matricaria inodora); settings: dosage 1280 g/ha, visual rating about 3 weeks after treatment vs untreated controls (100% = plants died)
Summary of the method: as §2

VERPE [20] = experiment: Post-emergence action against VERPE, 1.28 kg/ha; format: in vivo, Veronica persica; settings: dosage 1280 g/ha, visual rating about 3 weeks after treatment vs untreated controls (100% = plants died)
Summary of the method: as §2

KCHSC [21] = experiment: Pre-emergence action against KCHSC, 1280 g/ha; format: in vivo, Bassia scoparia; settings: scored visually after about 3 weeks vs untreated controls (100% = plants have died)
Summary of the method: as §1

ALOMY [22] = experiment: Post-emergence action against ALOMY, 1.28 kg/ha; format: in vivo, Alopecurus myosuroides; settings: dosage 1280 g/ha, visual rating about 3 weeks after treatment vs untreated controls
Summary of the method: as §2

STEME [23] = experiment: Post-emergence action against STEME, 1.28 kg/ha; format: in vivo, Stellaria media; settings: dosage 1280 g/ha, visual rating about 3 weeks after treatment vs untreated controls (100% = plants died)
Summary of the method: as §2

LOLRI [24] = experiment: Post-emergence action against LOLRI, 1.28 kg/ha; format: in vivo, Lolium rigidum; settings: dosage 1280 g/ha, visual rating about 3 weeks after treatment vs untreated controls
Summary of the method: as §2

SMILES | Pre-emergence action against ALOMY (ALOMY [1]) [%] | Pre-emergence action against DIGSA (DIGSA [2]) [%] | Pre-emergence action against ECHCG (ECHCG [3]) [%] | Pre-emergence action against LOLRI (LOLRI [4]) [%] | Pre-emergence action against POAAN (POAAN [5]) [%] | Pre-emergence action against SETVI (SETVI [6]) [%] | Pre-emergence action against ABUTH (ABUTH [7]) [%] | Pre-emergence action against AMARE (AMARE [8]) [%] | Pre-emergence action against MATIN (MATIN [9]) [%] | Pre-emergence action against STEME (STEME [10]) [%] | Pre-emergence action against VERPE (VERPE [11]) [%] | Post-emergence action against DIGSA (DIGSA [12]) [%] | Post-emergence action against ECHCG (ECHCG [13]) [%] | Post-emergence action against POAAN (POAAN [14]) [%] | Post-emergence action against SETVI (SETVI [15]) [%] | Post-emergence action against ABUTH (ABUTH [16]) [%] | Post-emergence action against AMARE (AMARE [17]) [%] | Post-emergence action against KCHSC (KCHSC [18]) [%] | Post-emergence action against MATIN (MATIN [19]) [%] | Post-emergence action against VERPE (VERPE [20]) [%] | further results
O=C(O)COc1nn(-c2ccccc2F)c(-c2ccc(F)nc2)c1Br [VI-003] | 90 | 100 | 100 | 90 | 100 | 100 | 90 | 100 | 100 | 90 | 100 | 100 | 100 | 100 | 100 | 90 | 90 | 90 | 100 | 90 | –
O=C(O)COc1nn(-c2ccccc2F)c(-c2ccc(F)nc2)c1C(F)(F)F [VII-030] | – | 90 | 90 | 100 | 100 | 100 | 90 | 100 | 90 | 100 | 90 | – | 100 | 100 | – | 90 | 90 | 90 | – | 90 | Pre-emergence action against KCHSC (KCHSC [21]): 90%; Post-emergence action against ALOMY (ALOMY [22]): 100%; Post-emergence action against STEME (STEME [23]): 100%
COC(=O)COc1nn(-c2c(F)cccc2F)c(-c2ccc(F)nc2)c1C#N [VII-061] | 100 | 100 | 100 | 100 | 100 | 100 | 90 | 100 | 100 | 100 | 100 | 100 | 100 | 100 | 90 | 90 | 90 | 90 | 100 | 100 | Post-emergence action against ALOMY (ALOMY [22]): 100%; Post-emergence action against LOLRI (LOLRI [24]): 100%; Post-emergence action against STEME (STEME [23]): 100%
COC(=O)COc1nn(-c2c(F)cccc2F)c(-c2ccc(F)nc2)c1Br [VII-109] | 100 | 100 | 100 | 100 | 100 | 100 | 90 | 100 | 100 | 100 | 100 | 100 | 100 | 100 | 100 | 100 | 100 | 90 | 100 | 100 | Post-emergence action against ALOMY (ALOMY [22]): 100%; Post-emergence action against LOLRI (LOLRI [24]): 100%; Post-emergence action against STEME (STEME [23]): 100%
